Reference: publication PMC7738508, “A therapeutic combination of two small molecule toxin inhibitors provides broad preclinical efficacy against viper snakebite” (Nature Communications, 2020)
Values joined by “and” are separate entries in the source; they are usually repeats but may differ in a detail not shown here. Equal entries are not always repeated. Where two headings read alike, the source gives them in different places.

How the values were obtained:
[1] = tested on: SVMP bioactivity of the four active venoms (E. ocellatus, E. carinatus, B. asper, B. arietans); test: in vitro kinetic fluorogenic SVMP assay, viper venoms overall; assay type: biochemical
Description: (§1) The SVMP assay measuring metalloproteinase activity and the plasma assay measuring coagulation in the presence or absence of venoms and inhibitors were performed as previously described. The SVMP assay kinetically measured cleavage of a quenched fluorogenic substrate (ES010, R&D Biosystems) by venom in the presence or absence of inhibitors.
(§2) Briefly, 10 µl of the substrate (supplied as a 6.2 mM stock) was used per 5 ml reaction buffer (150 mM NaCl, 50 mM Tris-Cl pH 7.5). Reactions consisted of 10 µl of venom ± inhibitors in PBS and 90 µl of substrate. Venoms were used at 1 µg/reaction and final inhibitor concentrations ranged from 150 µM to 150 nM. Samples were preincubated for 30 min at 37 °C and pipetted in triplicate into 384-well plates (Greiner). Thereafter, data was collected on an Omega FLUOstar (BMG Labtech) instrument at an excitation wavelength of 320 nm and emission wavelength of 405 nm at 25 °C for 1 h. The areas under the curve (AUCs) in the 0–40 min interval were calculated for each sample using MARS data analysis software v3.31 (BMG Labtech); this time point was chosen as the time where all fluorescence curves had reached a plateau (maximum fluorescence). For comparing venom-only samples, the means of at least three independent experimental runs for each condition, expressed as AUCs (n ≥ 3), were plotted at each inhibitor concentration with standard error of the mean (SEM). To determine inhibitor efficacy, the AUCs for each of the samples that consisted of venom + inhibitors were transformed and expressed as percentages of the venom-only sample (where the venom was 100%). The negative control (PBS-only) was also expressed relative to the venom, and the variation in background was presented as an interval delineated by the lowest and highest values in the PBS-only samples across concentrations and inhibitors for a specific venom.

[2] = tested on: procoagulant activity of viper venoms (citrated bovine plasma); test: plasma clotting assay, viper venoms overall; assay type: biochemical; details: range across all venoms; lower end of dimercaprol and marimastat ranges given as < 0.15; read-out: IC50, inhibition of procoagulant venom activity
Description: (§3) We used a previously developed plasma clotting assay[35] to measure venom-induced coagulation. Briefly, 100 ng of each venom was incubated at 37 °C for 30 min in the presence or absence of inhibitors (150 µM to 150 nM final concentrations). The final reaction consisted of 10 µl venom ± inhibitors in PBS, 20 µl 20 mM CaCl2, and 20 µl citrated bovine plasma (VWR). The samples were pipetted in triplicate into 384-well plates, and absorbance monitored at 595 nm for 2 h at 25 °C on an Omega FLUOstar instrument. We calculated the maximum clotting velocity of each of the curves as per clot waveform analysis, by calculating the maximum of the first derivative. The means of at least three independent experimental runs for each condition were plotted at each inhibitor concentration with SEMs.

[3] = tested on: procoagulant activity of Echis carinatus venom (citrated bovine plasma); test: plasma clotting assay; assay type: biochemical; design: key: max of first derivative of A595 clot curve (max clotting velocity); details: Echis carinatus venom 100 ng, independent repeats
Description: as §3

[4] = tested on: coagulopathic activity of Daboia russelii venom (citrated bovine plasma); test: plasma clotting assay; assay type: biochemical; design: key to maximum clotting velocity: max of first derivative of A595 clot curve (max clotting velocity); details: for maximum clotting velocity: Daboia russelii venom 100 ng, independent repeats
Description: as §3

water solubility = assay type: physicochemical
[5] = tested on: Bitis arietans venom SVMP activity; test: fluorogenic SVMP assay; assay type: biochemical; details: independent repeats
Description: as §1, §2

[6] = tested on: Bothrops asper venom SVMP activity; test: fluorogenic SVMP assay; assay type: biochemical; details: independent repeats
Description: as §1, §2

[7] = tested on: Echis carinatus venom SVMP activity; test: fluorogenic SVMP assay; assay type: biochemical; details: independent repeats
Description: as §1, §2

[8] = tested on: Echis ocellatus venom SVMP activity; test: fluorogenic SVMP assay; assay type: biochemical; details: independent repeats
Description: as §1, §2

[9] = tested on: procoagulant activity of Bothrops asper venom (citrated bovine plasma); test: plasma clotting assay; assay type: biochemical; details: Bothrops asper venom 100 ng, independent repeats
Description: as §3

[10] = tested on: procoagulant activity of Echis ocellatus venom (citrated bovine plasma); test: plasma clotting assay; assay type: biochemical; details: Echis ocellatus venom 100 ng, independent repeats
Description: as §3

[11] = tested on: pro- and anticoagulant fractions of D. russelii venom; test: nanofractionation with plasma coagulation assay; assay type: biochemical, Daboia russelii; details: nanofractionated D. russelii venom; inhibitor 0.0064 to 20 µM
Description: Fifty microlitres of venom solution (D. russelii; 1 mg/ml) was injected into a Shimadzu LC-2010 system with nanofractionation in parallel. Separation was performed on a Waters XBridge reversed-phase C18 column (250 × 4.6 mm^2 column with 3.5 μm pore-size) at 30 °C. The total flow rate of the mobile phase solution was 0.5 ml/min with eluent A (98% H2O, 2% acetonitrile [ACN], 0.1% formic acid [FA]) and eluent B (98% ACN, 2% H2O, 0.1% FA). Liquid chromatography gradients consisted of a linear increase of mobile phase B from 0 to 50% in 20 min, followed by a linear increase to 90% B in 4 min, then isocratic at 90% B for 5 min, after which the percentage of mobile phase B was decreased from 90 to 0% in 1 min, followed by 10 min at 0% B to re-equilibrate. The effluent was split in a 1:9 ratio of which the 10% fraction was sent to a Shimadzu SPD-M20A prominence diode array detector and the 90% fraction was directed to a nanofractionation collector which dispensed the fractions into transparent 384-well plates (F-bottom, rounded square well, polystyrene, without lid, clear, non-sterile; Greiner Bio One, Alphen aan den Rijn, The Netherlands) at a resolution of 6 s/well. The collector used was either a commercially available FractioMate^TM nanofractionator (SPARK-Holland & VU, Netherlands, Emmen & Amsterdam) controlled by FractioMator software v1.0 (Spark-Holland, The Netherlands, Emmen) or a modified Gilson 235P autosampler controlled by in-house written software Ariadne v1.8 (VU Amsterdam). The well plates with venom fractions were then dried overnight in a Christ Rotational Vacuum Concentrator (RVC 2 − 33 CD plus, Zalm en Kipp, Breukelen, The Netherlands) equipped with a cooling trap, and maintained at −80 °C during operation. The freeze-dried plates were then stored at −80 °C prior to bioassaying.
The final assay concentrations of the inhibitors tested in the assay were 20, 4, 0.8, 0.16, 0.032, and 0.0064 µM. The plates were then incubated for 30 min at room temperature, and during this time bovine plasma (Sterile Filtered, Biowest, Nuaille, France) was defrosted in a water bath and centrifuged for 4 min at 805 × g prior to use. […] The plate was then read immediately for absorbance kinetically for 100 min at 595 nm at 25 °C using a Varioskan Flash Multimode Reader (Thermo Fisher Scientific, Ermelo, The Netherlands). The obtained results were normalized by dividing the slope measured in each well by the median of all slope values across the plate, and the processed coagulation chromatograms were plotted to visualize very fast coagulation, medium increased coagulation and anticoagulation, as previously described.

E. ocellatus venom = test: in vivo preincubation model of envenoming (i.v.); design: species or system CD-1 mice
Description: All animal experiments were conducted using protocols approved by the Animal Welfare and Ethical Review Boards of the Liverpool School of Tropical Medicine and the University of Liverpool, and performed in specific pathogen-free conditions under licensed approval (PPL #4003718 and #P5846F90) of the UK Home Office and in accordance with the Animal [Scientific Procedures] Act 1986 and institutional guidance on animal care. All experimental animals (18–20 g [4–5 weeks old], male, CD-1 mice, Charles River, UK) were housed in groups of five with environmental enrichment, water and food ad libitum and their health monitored daily during acclimatization. The experimental design was based upon 3R-refined WHO-recommended protocols[28],[41], with animals randomized and observers being blinded to the experimental condition. The median lethal doses (venom LD50) used for E. ocellatus (Nigeria), E. carinatus (India), B. asper (Costa Rica), D. russelii (Sri Lanka) and B. arietans (Nigeria) venoms were previously determined[25],[41],[44],[45].
All experimental doses were prepared to a volume of 200 µl in PBS and incubated at 37 °C for 30 min prior to their intravenous injection via the tail vein. Animals were monitored for 6 h, and euthanized via rising concentrations of CO2 upon observation of previously defined humane end points that are predicators of lethality (e.g., seizure, pulmonary distress, paralysis, hemorrhage)[28]. Deaths, time of death, and survivors were recorded; where death/time of death actually represents the implementation of euthanasia based on defined humane end points.
For all experimental animals described above, blood samples were collected via cardiac puncture immediately post-euthanasia. Plasma was separated by centrifugation at 400 × g for 10 min and stored at −80 °C. We assessed the levels of thrombin-antithrombin complexes (TAT) and soluble thrombomodulin using mouse ELISA Kits (ab137994 and ab209880, Abcam), following the manufacturer’s protocol. All available plasma samples (some were unobtainable via cardiac puncture due to extensive internal hemorrhage) were assessed if the time of death within the group varied, whereas three samples were randomly chosen if the time of death was the same (e.g., either very rapid death within 2 min, or survival until the end of the experiment [360 min or 24 h]). The resulting data was plotted as the median of duplicate measurements for each animal and is presented with standard deviations (SDs).

[12] = cited from earlier work

With `CNC(=O)[C@H](Cc1ccccc1)NC(=O)[C@H](CC(C)C)[C@H](CSc1cccs1)C(=O)NO` [batimastat] the “neutralization of SVMP bioactivity” value ([1]; four active venoms, marimastat 150 nM to 150 µM, batimastat […] and 150 nM) was “equivalent efficacy to marimastat”, the IC50 [2] was less than 150 nM and the maximum clotting velocity ([3]; inhibitor 15 µM) was 0.03565 and 0.03449. For the same compound, the maximum clotting velocity ([3]; inhibitor 150 µM) was 0.0287 and 0.02696 and 0.02803, the “effect on clotting after complete neutralization of SVMP activity” value ([4]; D. russelii venom, high doses) was “revealed clear venom anticoagulant effects” and the maximum clotting velocity ([4]; inhibitor 15 µM) was 0.01373 and 0.01942 and 0.02131. For the same compound, the “water solubility (words)” value (water solubility) was “water insolubility” and the “water solubility (words)” value (water solubility; listed as Batimastat) was “low water solubility”.
For `OCC(S)CS` (stereo not drawn) [dimercaprol, 2,3-dimercapto-1-propanol], the “lowest concentration generally effective / required to fully inhibit SVMP activities” value ([1]; across the active venoms) was 1.5 µM, the IC50 ([1]; range across the active venoms, read-out: IC50s, inhibition of venom SVMP activity) was 20 to 400 nM and the “SVMP activity, percentage of the venom-only sample” value (“SVMP activity, percentage” for short) ([5]; inhibitor 15 µM) was 16.3406% and 15.4164% and 15.5101%. The “SVMP activity, percentage” value ([5]; inhibitor 150 µM) was 15.3818% and 14.876% and 14.901%, the “SVMP activity, percentage” value ([6]; inhibitor 15 µM) was 36.4776% and 36.4971% and 29.4073% and the “SVMP activity, percentage” value ([6]; inhibitor 150 µM) was 26.9201% and 36.0411% and 27.8434%. The “SVMP activity, percentage” value ([7]; inhibitor 15 µM) was 11.4563% and 14.5818% and 10.6976%, the “SVMP activity, percentage” value ([7]; inhibitor 150 µM) was 11.223% and 13.9151% and 10.3819% and the “SVMP activity, percentage” value ([8]; inhibitor 15 µM) was 17.6103% and 18.1155% and 16.6523%. The “SVMP activity, percentage” value ([8]; inhibitor 150 µM) was 15.563% and 16.8718% and 16.6432%, the IC50 [2] was 150 to 3700 nM and the maximum clotting velocity ([9]; inhibitor 15 µM) was 0.02441 and 0.02559 and 0.02164. For the same compound, the maximum clotting velocity ([9]; inhibitor 150 µM) was 0.02412 and 0.03441 and 0.03148, the maximum clotting velocity ([10]; inhibitor 15 µM) was 0.031 and 0.039 and 0.025 and the maximum clotting velocity ([10]; inhibitor 150 µM) was 0.038 and 0.0465 and 0.041. For the same compound, the maximum clotting velocity ([3]; inhibitor 15 µM) was 0.039 and 0.037 and 0.04491, the maximum clotting velocity ([3]; inhibitor 150 µM) was 0.03967 and 0.03833 and 0.05167 and the maximum clotting velocity ([4]; inhibitor 15 µM) was 0.02868 and 0.02941 and 0.02393. The maximum clotting velocity ([4]; inhibitor 150 µM) was 0.007941 and 0.0123.
For `CCc1c(C(=O)C(N)=O)c2c(OCC(=O)O)cccc2n1Cc1ccccc1` [varespladib], the maximum clotting velocity ([4]; inhibitor 15 µM) was 0.09594 and 0.09681 and 0.08696, the maximum clotting velocity ([4]; inhibitor 150 µM) was 0.1113 and 0.1116 and 0.1203 and the “inhibition of anticoagulant venom fractions” value [11] was “effectively inhibited”. For the same compound, the “inhibition of procoagulant venom fractions” value [11] was “some inhibitory effect against procoagulant venom toxins, but only at very high doses (20 µM)”, the “protection against venom-induced lethality” value (E. ocellatus venom; 45 µg E. ocellatus venom preincubated with 60 µg of each drug, i.v., 6 h) was “failed to prevent lethality over the full experimental time course” and the “thrombin-antithrombin (TAT) levels, range in group” value (E. ocellatus venom; plasma after euthanasia, E. ocellatus venom + 60 µg of each drug, venom-only mean 1127.3, normal mice 10.2–15.9) was 472.7 to 649.9 ng/mL. The “water solubility (words)” value (water solubility) was “water insolubility”, the “tolerability” value ([12]; Phase 1 and 2) was “well tolerated” and the “risk of major adverse cardiovascular events” value ([12]; Phase 2B, same daily dose, >300 patients for >6 months) was “no greater risk of major adverse cardiovascular events”. For the same compound, the “risk of myocardial infarction vs placebo” value ([12]; Phase 3, acute coronary syndrome patients, 500 mg oral daily) was “greater risk of myocardial infarction than those receiving placebo”, the “oral bioavailability” value [12] was “good oral bioavailability” and the half-life ([12]; delivered by iv infusion) was 5 h.
